Consider two compounds from patent publication US9651554B2, “Molecular diagnostic methods for predicting brain metastasis of breast cancer” (The Methodist Hospital Research Institute, priority 2010, dated 2017).

One data set is described as follows: in vivo. To be noted: BALB/c nude, mouse, po. How it is done:
Blood and whole brain of the mice were harvested 6 hours after the last treatment. Plasma was isolated from blood by centrifugation at 3000 rpm for 10 min at 4° C. Half of each brain was flash frozen using liquid nitrogen. All plasma and brain samples were stored at −80° C. until analysis by HPLC-MS/MS.
The separation was performed by injecting 10 μL of the sample on Acquity HPLC BEH C18 column (50×2.1 mm I.D., 1.7 μm, Waters, Milford, Mass., USA). […] The flow rate was 0.45 mL/min using a column temperature of 45° C.
The blood and whole brain of the mice were harvested six hours after the last treatment and the drug concentrations were measured by HPLC-MS/MS.

For data set [1] the following is noted: reported (Porkka et al., 2008); cited from earlier work.
The test system of the next data set is 231-BR-HER2 cells. The experiment in a line: Brain metastasis xenograft, 231-BR-HER2 model: metastases counted in H&E-stained brain sections. To be noted: for fewer large metastases than vehicle / fewer micrometastases than vehicle: 231-BR-HER2 cells, p<0.05; for large metastases # / Micro metastases #: 231-BR-HER2 model; for large metastases #: >50 μm^2; for Micro metastases #: ≦50 μm^2.

The next data set deals with 231-BR-vector cells. The experiment in a line: Brain metastasis xenograft, 231-BR-vector model: metastases counted in H&E-stained brain sections. To be noted: for large metastases # / Micro metastases #: 231-BR-vector model; for large metastases #: >50 μm^2; for Micro metastases #: ≦50 μm^2.
Setting [2] is: 25 mg/kg once daily oral 28 days.
[3] abbreviates: 50 mg/kg once daily oral 28 days.
Where [4] appears, read: 40 mg/kg once daily oral 28 days.
The mark [5] stands for this setting: 80 mg/kg once daily oral 28 days.

Excerpt for 231-BR-vector cells: Treatment started 3 days after cell injection.
Brain sections (10 μm thick) were serially sectioned.
Mice received 28 days treatment, and all mice were sacrificed, and brains were harvested for ex vivo whole-brain fluorescent imaging of EGFP-positive brain metastases.

`Cc1nc(Nc2ncc(C(=O)Nc3c(C)cccc3Cl)s2)cc(N2CCN(CCO)CC2)n1` [Dasatinib]: the Kp at 336 h in “in vivo” fell in the range of 0.06 to 0.12. Further, the BBB crossing entry in data set [1] was “able to cross the BBB”. Further, the “fewer large metastases than vehicle” value with 231-BR-HER2 cells (25 or 50 mg/kg body weight) is recorded as 38.1-56.9%; in the data set with 231-BR-vector cells (231-BR-vector cells, 25 or 50 mg/kg, p<0.05), 41.9-49.3%. The “fewer micrometastases than vehicle” value is 40.2-61.4% in the data set with 231-BR-HER2 cells (25 or 50 mg/kg body weight) and 33.8-54.4% with 231-BR-vector cells (231-BR-vector cells, 25 or 50 mg/kg body weight, p<0.05). In addition, the “large metastases #” value was 12.5 ± 1.8 in the data set on 231-BR-HER2 cells (setting [2]), 8.7 ± 1.6 in the data set with 231-BR-HER2 cells (setting [3]), 8.6 ± 1.5 in the data set with 231-BR-vector cells (setting [2]) and 7.5 ± 1.3 with 231-BR-vector cells (setting [3]). In addition, the “Micro metastases #” value in the data set with 231-BR-HER2 cells (setting [2]) is recorded as 175.7 ± 27.8; in the data set with 231-BR-HER2 cells (setting [3]), 113.2 ± 23.8; with 231-BR-vector cells (setting [2]), 144.6 ± 12.5; in the data set with 231-BR-vector cells (setting [3]), 99.5 ± 10.3.
For the compound `CCN(CC)CCNC(=O)c1c(C)[nH]c(/C=C2\C(=O)Nc3ccc(F)cc32)c1C` [Sunitinib], the Kp at 336 h in “in vivo” is 0.24 to 0.31. For the same compound, the “fewer large metastases than vehicle” value with 231-BR-HER2 cells (40 or 80 mg/kg body weight) is 22.7-24.8%. Besides, the “fewer micrometastases than vehicle” value with 231-BR-HER2 cells (40 or 80 mg/kg body weight) was 22.3-31.9%; in the data set on 231-BR-vector cells (231-BR-vector cells, 40 or 80 mg/kg body weight, p<0.05) it was 28.5-31.3%. Also, the “Micro metastases #” value stood at 228.1 ± 28.3 with 231-BR-HER2 cells (setting [4]), 199.8 ± 24.1 in the data set with 231-BR-HER2 cells (setting [5]) and 150.2 ± 22 in the data set on 231-BR-vector cells (setting [5]). For the same compound, the “fewer large metastasis than vehicle” value with 231-BR-vector cells (231-BR-vector cells, 80 mg/kg body weight, p<0.05) turned out to be 31%. The “large metastases #” value was determined as 11.8 ± 2.0 in the data set with 231-BR-vector cells (setting [4]) and 10.2 ± 1.3 with 231-BR-vector cells (setting [5]).
